These results are taken from patent US4652549A, “Cardiac anti-hypertrophic agents” (Merck & Co., Inc., priority 1985, dated 1987).

This assay deals with cardiac hypertrophy. The experiment in a line: 7-day continuous infusion, reversing cardiac hypertrophy (heart weight). It counts as in vivo. Conditions: 30 pmole per kg per minute. An excerpt: Heart Weight (grams H2 O per 100 grams tissue)

In the case of “Arg-Arg-Ser-Ser-Cys-Phe-Gly-Gly-Arg-Ile-Asp-Arg-Ile-Gly-Ala-Gln-Ser-Gly-Leu-Gly-Cys-Asn-Ser-Phe-Arg-Tyr (RRSSCFGGRIDRIGAQSGLGCNSFRY; printed: Arg-Arg-Ser-Ser-Cys-Phe-Gly-Gly-Arg-Ile-Asp-Arg-Ile-Gly-Ala-Gln-Ser-Gly-Leu-Gly-Cys-Asn-Ser-Phe-Arg-Tyr) [PEPTIDE OF EXAMPLE 5]”, the “Heart Weight” value reads like this: (NORMAL group, n = 22) 0.45 + 0.02 grams H2 O per 100 grams tissu; (first group (heading not given, presumably hypertrophic animals), n = 23, statistically significant at p less than 0.05) 0.70 + 0.03 grams H2 O per 100 grams tissu.
